29 compounds from patent US20120088746A1, “AMIDE DERIVATIVES AS ION-CHANNEL LIGANDS AND PHARMACEUTICAL COMPOSITIONS AND METHODS OF USING THE SAME” (PFIZER INC., priority 2006, published 2012) can be followed below.

Counter-ions that a name gives are not always drawn.

Broadly, the IC50 is the concentration at which inhibition is half-maximal.

Sequence of human VR1 (Q8NER1 whole entry): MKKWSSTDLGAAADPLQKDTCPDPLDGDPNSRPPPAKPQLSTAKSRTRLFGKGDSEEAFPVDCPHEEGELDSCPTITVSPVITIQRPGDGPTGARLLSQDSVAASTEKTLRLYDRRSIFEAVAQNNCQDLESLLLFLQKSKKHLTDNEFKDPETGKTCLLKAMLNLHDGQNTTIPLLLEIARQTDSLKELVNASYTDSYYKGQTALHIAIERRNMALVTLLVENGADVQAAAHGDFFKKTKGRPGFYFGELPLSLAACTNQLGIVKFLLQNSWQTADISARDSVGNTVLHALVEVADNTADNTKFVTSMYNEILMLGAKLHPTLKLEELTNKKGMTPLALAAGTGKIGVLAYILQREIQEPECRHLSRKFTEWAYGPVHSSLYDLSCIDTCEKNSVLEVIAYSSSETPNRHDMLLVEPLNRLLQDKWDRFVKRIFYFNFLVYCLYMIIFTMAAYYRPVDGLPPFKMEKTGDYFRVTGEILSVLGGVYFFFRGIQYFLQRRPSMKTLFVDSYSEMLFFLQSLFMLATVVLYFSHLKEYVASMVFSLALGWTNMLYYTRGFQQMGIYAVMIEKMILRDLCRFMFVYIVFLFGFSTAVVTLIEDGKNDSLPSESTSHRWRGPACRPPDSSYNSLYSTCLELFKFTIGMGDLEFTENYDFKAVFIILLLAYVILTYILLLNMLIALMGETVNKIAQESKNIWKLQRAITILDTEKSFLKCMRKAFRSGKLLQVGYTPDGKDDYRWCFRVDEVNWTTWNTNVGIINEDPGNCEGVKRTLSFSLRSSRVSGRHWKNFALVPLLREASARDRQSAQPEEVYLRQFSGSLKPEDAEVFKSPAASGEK

For the assay, the target named is human VR1 (Homo sapiens, UniProt Q8NER1). Description: Acid stimulation assay (acid-induced intracellular calcium change, FDSS 6000). In kind it is cell-based. The following applies: final assay buffer pH5.8, 15 min pre-incubation, read-out: IC50 (nM) Low pH. The text has this:
VR1 antagonistic activity can be determined by the Ca^2+ imaging assay using human VR1 highly expressing cells. The cells that highly express human VR1 receptors are obtainable from several different conventional methods. The one standard method is cloning from human Dorsal Root Ganglion (DRG) or kidney according to the methods such as described in the journal article; Nature, 389, pp 816-824, 1997. Alternatively VR1 receptors highly expressing human keratinocytes are also known and published in the journal article (Biochemical and Biophysical Research Communications, 291, pp 124-129, 2002). […] Furthermore, the method to up regulate human VR1 gene, which is usually a silent gene or don't produce detectable level of VR1 receptors, is also available to obtain propriety cells. Such genetic modification method was described in detail; Nat. Biotechnol., 19, pp 440-445, 2001.
The cells that express human VR1 receptors were maintained in culture flask at 37° C. in an environment containing 5% CO2 until use in the assay. The intracellular Ca^2+ imaging assay to determine VR1 antagonistic activities were done by following procedures.
The culture medium was removed from the flask and fura-2/AM fluorescent calcium indicator was added to the flask at a concentration of 5 μM in the medium. The flask was placed in CO2 incubator and incubated for 1 hour. Then the cells expressing the human VR1 receptors were detached from the flask follow by washing with phosphate buffer saline, PBS(−) and re-suspended in assay buffer. The 80 tit of aliquot of cell suspension (3.75×10^5 cells/ml) was added to the assay plate and the cells were spun down by centrifuge (950 rpm, 20° C., 3 minutes).
The Acid-induced changes in the intracellular calcium concentration were monitored using FDSS 6000 (Hamamatsu Photonics, Japan), a fluorometric imaging system. The cell suspension in resting buffer (HBSS supplemented with 10 mM HEPES, pH 7.4) were pre-incubated with varying concentrations of the test compounds or resting buffer (buffer control) for 15 minutes at room temperature under the dark condition. The cells were automatically added the stimulating solution (HBSS supplemented with MES, final assay buffer pH5.8) by the FDSS 6000.
The Acid-induced changes in the intracellular calcium concentration were monitored using FDSS 6000 (Hamamatsu Photonics, Japan), a fluorometric imaging system. The cell suspension in resting buffer (HBSS supplemented with 10 mM HEPES, pH 7.4) was pre-incubated with varying concentrations of the test compounds or resting buffer (buffer control) for 15 minutes at room temperature under dark conditions. The cells were automatically added to the stimulating solution (HBSS supplemented with MES, final assay buffer pH5.8) by the FDSS 6000.
(In general: A change in cytosolic calcium serves as a functional read-out for many receptors and channels.)
Regarding `Cc1cc([C@@H](C)NC(=O)c2ccc3cc(C(C)(C)C)ccc3c2)ccc1NS(C)(=O)=O` [Example 1, 6-TERT-BUTYL-N-((1R)-1-{3-METHYL-4-[(METHYLSULFONYL)AMINO]PHENYL}ETHYL)-2-NAPHTHAMIDE], the IC50 was 3 nM.
Then `Cc1nc([C@@H](C)NC(=O)c2ccc3cc(C(C)(C)C)ccc3c2)ccc1NS(C)(=O)=O` [Example 2, 6-TERT-BUTYL-N-((1R)-1-{6-METHYL-5-[(METHYLSULFONYL)AMINO]PYRIDIN-2-YL}ETHYL)-2-NAPHTHAMIDE], with 4 nM; and `C[C@@H](NC(=O)c1ccc2cc(C(F)(F)F)ccc2n1)c1cc(F)c(NS(C)(=O)=O)c(F)c1` [Example 3, ((1R)-1-{3,5-DIFLUORO-4-[(METHYLSULFONYL)AMINO]PHENYL}ETHYL)-6-(TRIFLUORO-METHYL)QUINOLINE-2-CARBOXAMIDE], with 4 nM; and `Cc1cc([C@@H](C)NC(=O)c2cnc3cc(C(F)(F)F)ccc3c2)ccc1NS(C)(=O)=O` [Example 4, (1R)-1-{3-METHYL-4-[(METHYLSULFONYL)AMINO]PHENYL}ETHYL)-7-(TRIFLUOROMETHYL)QUINOLINE-3-CARBOXAMIDE], with 100 nM.
Then `C[C@@H](NC(=O)c1ccc2cc(C(C)(C)C)ccc2n1)c1cc(F)c(NS(C)(=O)=O)c(F)c1` [Example 7, 6-TERT-BUTYL-N-((1R)-1-{3,5-DIFLUORO-4-[(METHYLSULFONYL)AMINO]PHENYL}-ETHYL)QUINOLINE-2-CARBOXAMIDE], with 1 nM; and `Cc1cc([C@@H](C)NC(=O)c2ccc3cc(C(C)C)ccc3n2)ccc1NS(C)(=O)=O` [Example 9, 6-ISOPROPYL-N-((1R)-1-{3-METHYL-4-[(METHYLSULFONYL)AMINO]PHENYL}ETHYL)-QUINOLINE-2-CARBOXAMIDE], with 714 nM.
Consider `Cc1cc([C@@H](C)NC(=O)c2cnc3cc(C(F)(F)F)ccc3c2C)ccc1NS(C)(=O)=O` [Example 11, 4-METHYL-N-((1R)-1-{3-METHYL-4-[(METHYLSULFONYL)AMINO]PHENYL}ETHYL)-7-(TRIFLUOROMETHYL)QUINOLINE-3-CARBOXAMIDE], for which the IC50 amounted to 240 nM.
On to `Cc1cc([C@@H](C)NC(=O)c2ccc3cc(Br)ccc3n2)ccc1NS(C)(=O)=O` [Example 12, 6-BROMO-N-((1R)-1-{3-METHYL-4-[(METHYLSULFONYL)AMINO]PHENYL}ETHYL)-QUINOLINE-2-CARBOXAMIDE], for which the IC50 came out at 444 nM.
`Cc1cc([C@@H](C)NC(=O)c2ccc3cc(C(C)(C)C)ccc3c2)c(F)cc1NS(C)(=O)=O` [Example 13, 6-TERT-BUTYL-N-((1R)-1-{2-FLUORO-5-METHYL-4-[(METHYLSULFONYL)AMINO]PHENYL}-ETHYL)-2-NAPHTHAMIDE]: the 50% inhibitory concentration (IC50) is 127 nM.
As for `Cc1cc([C@@H](C)NC(=O)c2ccc3cc(C(C)(C)C)ccc3n2)c(F)cc1NS(C)(=O)=O` [Example 14, 6-TERT-BUTYL-N-((1R)-1-{2-FLUORO-5-METHYL-4-[(METHYLSULFONYL)AMINO]PHENYL}-ETHYL)QUINOLINE-2-CARBOXAMIDE], the IC50 was 288 nM.
For `C[C@@H](NC(=O)c1ccc2nc(C(C)(C)C)ccc2c1)c1cc(F)c(NS(C)(=O)=O)c(F)c1` [Example 15, 2-TERT-BUTYL-N-((1R)-1-{3,5-DIFLUORO-4-[(METHYLSULFONYL)AMINO]PHENYL}ETHYL)-QUINOLINE-6-CARBOXAMIDE HYDROCHLORIDE], the half-maximal inhibitory concentration (IC50) came to 24 nM.
Turning to `Cc1cc([C@@H](C)NC(=O)c2ccc3cc(C(C)(C)O)ccc3n2)ccc1NS(C)(=O)=O` [Example 16], the IC50 was 71 nM.
As for `Cc1cc([C@@H](C)NC(=O)c2ccc3cc(Br)ccc3c2)ccc1NS(C)(=O)=O` [Example 17, 6-BROMONAPHTHALENE-2-CARBOXYLIC ACID [(R)-1-(4-METHANESULFONYLAMINO-3-METHYLPHENYL)ETHYL]AMIDE], the figure is 14 nM.
Then `Cc1cc([C@@H](C)NC(=O)c2ccc3cc(F)ccc3c2)ccc1NS(C)(=O)=O` [Example 18, 6-FLUORONAPHTHALENE-2-CARBOXYLIC ACID [(R)-1-(4-METHANESULFONYL-AMINO-3-METHYLPHENYL)ETHYL]AMIDE], with 83 nM; and `Cc1cc([C@@H](C)NC(=O)c2ccc3ccccc3c2)ccc1NS(C)(=O)=O` [Example 19, NAPHTHALENE-2-CARBOXYLIC ACID [(R)-1-(4-METHANESULFONYLAMINO-3-METHYLPHENYL)ETHYL]AMIDE], with 63 nM; and `COc1ccc2cc(C(=O)N[C@H](C)c3ccc(NS(C)(=O)=O)c(C)c3)ccc2c1` [Example 20, 6-METHOXYNAPHTHALENE-2-CARBOXYLIC ACID [(R)-1-(4-METHANESULFONYL-AMINO-3-METHYLPHENYL)ETHYL]AMIDE], with 8 nM.
For the compound `Cc1cc([C@@H](C)NC(=O)c2ccc3cc(N4CCCC4)ccc3c2)ccc1NS(C)(=O)=O` [Example 21, 6-PYRROLIDIN-1-YL-NAPHTHALENE-2-CARBOXYLIC ACID [(R)-1-(4-METHANESULFONYL-AMINO-3-METHYLPHENYL)ETHYL]AMIDE], the IC50 worked out at 44 nM.
Regarding `Cc1cc([C@@H](C)NC(=O)c2ccc3cc(C4CC4)ccc3c2)ccc1NS(C)(=O)=O` [Example 22, 6-CYCLOPROPYLNAPHTHALENE-2-CARBOXYLIC ACID [(R)-1-(4-METHANESULFONYL-AMINO-3-METHYLPHENYL)ETHYL]AMIDE], the concentration for half-maximal inhibition (IC50) was determined as 3 nM.
For `Cc1cc([C@@H](C)NC(=O)c2cc3ccc(Cl)cc3nc2C)ccc1NS(C)(=O)=O` [Example 23, 7-CHLORO-2-METHYL-QUINOLINE-3-CARBOXYLIC ACID [(R)-1-(4-METHANESULFONYL-AMINO-3-METHYLPHENYL)ETHYL]AMIDE], the IC50 stood at 379 nM.
With `C[C@@H](NC(=O)c1cnc2cc(C(F)(F)F)ccc2c1)c1cc(F)c(NS(C)(=O)=O)c(F)c1` [Example 27, N-((1R)-1-{3,5-DIFLUORO-4-[(METHYLSULFONYL)AMINO]PHENYL}ETHYL)-7-(TRIFLUOROMETHYL)QUINOLINE-3-CARBOXAMIDE], the 50% inhibitory concentration (IC50) was 105 nM.
`CC(=O)c1ccc2nc(C(=O)N[C@H](C)c3ccc(NS(C)(=O)=O)c(C)c3)ccc2c1` [Example 28, 6-ACETYL-N-((1R)-1-{3-METHYL-4-[(METHYLSULFONYL)AMINO]PHENYL}ETHYL)-QUINOLINE-2-CARBOXAMIDE]: the concentration for half-maximal inhibition (IC50) amounted to 187 nM.
On to `Cc1cc([C@@H](C)NC(=O)c2cnc3ccc(C(C)(C)C)cc3c2)ccc1NS(C)(=O)=O` [Example 29, 6-TERT-BUTYL-N-((1R)-1-{3-METHYL-4-[(METHYLSULFONYL)AMINO]PHENYL}ETHYL)-QUINOLINE-3-CARBOXAMIDE], for which the IC50 turned out to be 231 nM.
Consider `CC(C)c1ccc2cc(C(=O)N[C@H](C)c3cc(F)c(NS(C)(=O)=O)c(F)c3)ccc2n1` [Example 31, N-((1R)-1-{3,5-DIFLUORO-4-[(METHYLSULFONYL)AMINO]PHENYL}ETHYL)-2-ISOPROPYL-QUINOLINE-6-CARBOXAMIDE], for which the IC50 came out at 47 nM.
Consider `Cc1cc([C@@H](C)NC(=O)c2ccc3nc(C(F)(F)F)ccc3c2)c(F)cc1NS(C)(=O)=O` [Example 32, N-((1R)-1-{2-FLUORO-5-METHYL-4-[(METHYLSULFONYL)AMINO]PHENYL}ETHYL)-2-(TRIFLUOROMETHYL)QUINOLINE-6-CARBOXAMIDE], for which the concentration for half-maximal inhibition (IC50) worked out at 6 nM.
For the compound `Cc1cc([C@@H](C)NC(=O)c2cnc3cc(C(C)(C)C)ccc3c2)ccc1NS(C)(=O)=O` [Example 33, 7-TERT-BUTYL-N-((1R)-1-{3-METHYL-4-[(METHYLSULFONYL)AMINO]PHENYL}ETHYL)-QUINOLINE-3-CARBOXAMIDE], the IC50 stood at 56 nM.
Take `C[C@@H](NC(=O)c1cnc2cc(C(F)(F)F)ccc2c1)c1ccc(NS(C)(=O)=O)c(F)c1` [Example 34, N-((1R)-1-{3-FLUORO-4-[(METHYLSULFONYL)AMINO]PHENYL}ETHYL)-7-(TRIFLUORO-METHYL)QUINOLINE-3-CARBOXAMIDE]: the IC50 was found to be 26 nM.
With `Cc1cc([C@@H](C)NC(=O)c2ccc3nc(C(C)C)ccc3c2)ccc1NS(C)(=O)=O` [Example 35, 2-ISOPROPYL-N-((1R)-1-{3-METHYL-4-[(METHYLSULFONYL)AMINO]PHENYL}ETHYL)-QUINOLINE-6-CARBOXAMIDE], the half-maximal inhibitory concentration (IC50) was determined as 5 nM.
Turning to `CC(C)c1ccc2cc(C(=O)N[C@H](C)c3cc(F)c(NS(C)(=O)=O)c(F)c3)cnc2c1` [Example 39, N-((1R)-1-{3,5-DIFLUORO-4-[(METHYLSULFONYL)AMINO]PHENYL}ETHYL)-7-ISOPROPYL-QUINOLINE-3-CARBOXAMIDE], the half-maximal inhibitory concentration (IC50) is 13 nM.
For the compound `Cc1cc([C@@H](C)NC(=O)c2ccc3cc(C(C)(C)C)ccc3c2)ncc1NS(C)(=O)=O` [Example 40, 6-TERT-BUTYL-N-((1R)-1-{4-METHYL-5-[(METHYLSULFONYL)AMINO]PYRIDIN-2-YL}ETHYL)-2-NAPHTHAMIDE], the IC50 came out at 31 nM.
